The values that follow are results of earlier work, collected in PMC10583817 (RSC Medicinal Chemistry, 2023).

SMILES strings stand for the structures.

This data set deals with WIN site of WDR5. As to conditions: cited from earlier work.

Take `Cc1nc(F)ccc1-c1cc(Cn2ccn(C)c2=N)cc(C(=O)NCc2ccc(Cl)c(Cl)c2)c1` [WIN-IN-4]: the binding activity result is “sub-nanomole”.
